Laboratory results from ChEMBL document CHEMBL1133991, “Bioisosteres of 9-carboxymethyl-4-oxo-imidazo[1,2-a]indeno-[1,2-e]pyrazin-2-carboxylic acid derivatives. Progress towards selective, potent in vivo AMPA antagonists with longer durations of action” (Bioorg Med Chem Lett, 2001).
Active and inactive are the calls of the source. The rule behind the calls is not given here.

Key:
[1] = target: T1, Glutamate receptor ionotropic, AMPA (Rattus norvegicus, UniProt P19490+P19491+P19492+P19493)
Description: Affinity towards Ionotropic glutamate receptor AMPA using [3H]AMPA as ligand on rat cortical membrane preparations

Glutamate NMDA receptor = test: In vitro binding affinity towards NMDA glutamate receptor using [3H]5,7-dichlorokynurenate as ligand on rat cortical membrane preparations
Mus musculus [2] = organism: Mus musculus; test: (§1) Dose which protected 50 % of the mice from a tonic convulsion.; format: functional
Mus musculus [3] = organism: Mus musculus; test: as §1; format: functional; remark: listed apart in the source
Mus musculus [4] = test: Dose which protected 50 % of the mice from a tonic convulsion, pretreatment was before 3 hr by i.v. administration in MES test.; format: functional; settings: iv
Mus musculus [5] = test: Dose which protected 50 % of the mice from a tonic convulsion, pretreatment was before 3 hr by i.v. administration in MES test at 40 mg/kg (Inactive); format: functional, organism-based; parameters: dose 40 mg/kg
[6] = target: T1, Glutamate receptor ionotropic, AMPA; remark: listed apart in the source
Description: Compound was evaluated for potent antagonist intrinsic activity against Ionotropic glutamate receptor AMPA

| IC50 [1] [nM] | IC50 (Glutamate NMDA receptor) [nM] | SMILES | ED50 (Mus musculus [2]) [mg/kg] | ED50 (Mus musculus [3]) [mg/kg] | ED50 (Mus musculus [4]) [mg/kg] | ED50 (Mus musculus [5]) | IC50 [6] [nM] |
| --- | --- | --- | --- | --- | --- | --- | --- |
| 40 | 7200 | O=C(O)Cc1cccc2c1Cc1c-2nc(O)c2nc(-c3cccc(C(=O)O)c3)cn12 | 8.6 | – | – | – | – |
| 30 | > 10000 | O=C(O)/C=C/c1cn2c3c(nc(O)c2n1)-c1cccc(CC(=O)O)c1C3 | 2.2 | 3.8 | 25.6 | – | – |
| 147 | > 10000 | O=C(O)Cc1cccc2c1Cc1c-2nc(O)c2nc(CP(=O)(O)O)cn12 | 4.7 | 2.5 | 22.4 | – | – |
| 15 | 537 | O=C(O)c1cn2c3c(nc(O)c2n1)-c1cccc(Cc2nn[nH]n2)c1C3 | 2.3 | 2 | – | inactive | – |
| 189 | 328 | CNC(=O)Cc1cccc2c1Cc1c-2nc(O)c2nc(C(=O)O)cn12 | 10 | 5 | > 20 | – | – |
| 100 | 6100 | O=C(O)Cc1cccc2c1Cc1c-2nc(O)c2nc(-c3ccccc3C(=O)O)cn12 | – | – | – | – | – |
| 31 | 1600 | O=C(O)CCc1cn2c3c(nc(O)c2n1)-c1cccc(CC(=O)O)c1C3 | 1.9 | – | – | – | – |
| 150 | > 10000 | O=C(O)Cc1cccc2c1Cc1c-2nc(O)c2nc(P(=O)(O)O)cn12 | 3.5 | 2.9 | 3.5 | – | – |
| 235 | 1200 | CS(=O)(=O)NC(=O)Cc1cccc2c1Cc1c-2nc(O)c2nc(C(=O)O)cn12 | – | – | – | – | – |
| 586 | > 10000 | O=C(O)c1cn2c3c(nc(O)c2n1)-c1cccc(CP(=O)(O)O)c1C3 | 5.6 | – | – | – | – |

Further lines, the compound ahead of its results:

| SMILES | IC50 [1] [nM] | IC50 (Glutamate NMDA receptor) [nM] | ED50 (Mus musculus [2]) [mg/kg] | ED50 (Mus musculus [3]) [mg/kg] | ED50 (Mus musculus [4]) [mg/kg] | ED50 (Mus musculus [5]) | IC50 [6] [nM] |
| --- | --- | --- | --- | --- | --- | --- | --- |
| O=C(O)[C@@H]1C[C@H]2C[C@@H](CCc3nn[nH]n3)CC[C@H]2CN1 [TEZAMPANEL ANHYDROUS] | – | – | – | 3.4 | – | – | – |
| O=c1[nH]c2cc(-n3ccnc3)c([N+](=O)[O-])cc2[nH]c1=O [YM-90K] | – | – | – | – | > 40 | – | – |
| O=P(O)(O)c1cn2c3c(nc(O)c2n1)-c1cccc(Cc2nn[nH]n2)c1C3 | 13 | 2360 | 1 | 0.8 | 3.5 | – | 6 |
| O=C(O)Cc1cccc2c1Cc1c-2nc(O)c2nc(-c3ccc(C(=O)O)cc3)cn12 | 12 | 5800 | 5 | 5 | 15 | – | – |
| O=C(O)Cc1cn2c3c(nc(O)c2n1)-c1cccc(CC(=O)O)c1C3 | – | – | – | 0.5 | 28 | – | – |
| O=C(O)Cc1cccc2c1Cc1c-2nc(O)c2nc(C(=O)O)cn12 | – | – | – | – | 25.6 | – | – |
| O=C(Cc1cccc2c1Cc1c-2nc(O)c2nc(C(=O)O)cn12)NS(=O)(=O)c1ccccc1 | 139 | 2000 | – | – | – | – | – |
